{
  "source": "paper PMC3130141",
  "about": "(Archives of Drug Information, 2011)",
  "tested_on": "Japanese patients with advanced solid tumors",
  "assay": "Adverse events by CTCAE version 3.0, Phase I dose-escalation study",
  "assay_type": "in vivo, human",
  "key": {"[1]": {"settings": "all doses 10-25 mg, 18 patients"}},
  "data": [
    {"smiles": "Cc1ccc(C(=O)N(CCCN)C(c2nc3snc(C)c3c(=O)n2Cc2ccccc2)C(C)C)cc1", "note": "(stereo not shown) [AZD4877]", "values": [
      {"measurement": "Anorexia, patients with CTCAE grade ≥3 event", "setting": "10 mg (N = 3)", "value": "0 N (%)"},
      {"measurement": "Any grade ≥3 event, patients with CTCAE grade ≥3 event", "setting": "10 mg (N = 3)", "value": "0 N (%)"},
      {"measurement": "Constipation, CTCAE any grade, patients with AEs", "setting": "10 mg (N = 3)", "value": "1 (33) N (%)"},
      {"measurement": "Constipation, patients with CTCAE grade ≥3 event", "setting": "10 mg (N = 3)", "value": "0 N (%)"},
      {"measurement": "Diarrhea, CTCAE any grade, patients with AEs", "setting": "10 mg (N = 3)", "value": "2 (67) N (%)"},
      {"measurement": "Dizziness, CTCAE any grade, patients with AEs", "setting": "10 mg (N = 3)", "value": "2 (67) N (%)"},
      {"measurement": "Fatigue, CTCAE any grade, patients with AEs", "setting": "10 mg (N = 3)", "value": "1 (33) N (%)"},
      {"measurement": "Fatigue, patients with CTCAE grade ≥3 event", "setting": "10 mg (N = 3)", "value": "0 N (%)"},
      {"measurement": "Febrile neutropenia, patients with CTCAE grade ≥3 event", "setting": "10 mg (N = 3)", "value": "0 N (%)"},
      {"measurement": "Insomnia, CTCAE any grade, patients with AEs", "setting": "10 mg (N = 3)", "value": "1 (33) N (%)"},
      {"measurement": "Nasopharyngitis, CTCAE any grade, patients with AEs", "setting": "10 mg (N = 3)", "value": "0 N (%)"},
      {"measurement": "Nausea, CTCAE any grade, patients with AEs", "setting": "10 mg (N = 3)", "value": "2 (67) N (%)"},
      {"measurement": "Neutropenia, patients with CTCAE grade ≥3 event", "setting": "10 mg (N = 3)", "value": "0 N (%)"},
      {"measurement": "Pyrexia, CTCAE any grade, patients with AEs", "setting": "10 mg (N = 3)", "value": "0 N (%)"},
      {"measurement": "Rash, CTCAE any grade, patients with AEs", "setting": "10 mg (N = 3)", "value": "0 N (%)"},
      {"measurement": "Urinary tract infection, patients with CTCAE grade ≥3 event", "setting": "10 mg (N = 3)", "value": "0 N (%)"},
      {"measurement": "Anorexia, patients with CTCAE grade ≥3 event", "setting": "15 mg (N = 3)", "value": "0 N (%)"},
      {"measurement": "Any grade ≥3 event, patients with CTCAE grade ≥3 event", "setting": "15 mg (N = 3)", "value": "0 N (%)"},
      {"measurement": "Constipation, CTCAE any grade, patients with AEs", "setting": "15 mg (N = 3)", "value": "0 N (%)"},
      {"measurement": "Constipation, patients with CTCAE grade ≥3 event", "setting": "15 mg (N = 3)", "value": "0 N (%)"},
      {"measurement": "Diarrhea, CTCAE any grade, patients with AEs", "setting": "15 mg (N = 3)", "value": "1 (33) N (%)"},
      {"measurement": "Dizziness, CTCAE any grade, patients with AEs", "setting": "15 mg (N = 3)", "value": "0 N (%)"},
      {"measurement": "Fatigue, CTCAE any grade, patients with AEs", "setting": "15 mg (N = 3)", "value": "1 (33) N (%)"},
      {"measurement": "Fatigue, patients with CTCAE grade ≥3 event", "setting": "15 mg (N = 3)", "value": "0 N (%)"},
      {"measurement": "Febrile neutropenia, patients with CTCAE grade ≥3 event", "setting": "15 mg (N = 3)", "value": "0 N (%)"},
      {"measurement": "Insomnia, CTCAE any grade, patients with AEs", "setting": "15 mg (N = 3)", "value": "0 N (%)"},
      {"measurement": "Nasopharyngitis, CTCAE any grade, patients with AEs", "setting": "15 mg (N = 3)", "value": "0 N (%)"},
      {"measurement": "Nausea, CTCAE any grade, patients with AEs", "setting": "15 mg (N = 3)", "value": "1 (33) N (%)"},
      {"measurement": "Neutropenia, patients with CTCAE grade ≥3 event", "setting": "15 mg (N = 3)", "value": "0 N (%)"},
      {"measurement": "Pyrexia, CTCAE any grade, patients with AEs", "setting": "15 mg (N = 3)", "value": "3 (100) N (%)"},
      {"measurement": "Rash, CTCAE any grade, patients with AEs", "setting": "15 mg (N = 3)", "value": "3 (100) N (%)"},
      {"measurement": "Urinary tract infection, patients with CTCAE grade ≥3 event", "setting": "15 mg (N = 3)", "value": "0 N (%)"},
      {"measurement": "Anorexia, patients with CTCAE grade ≥3 event", "setting": "20 mg (N = 6)", "value": "0 N (%)"},
      {"measurement": "Any grade ≥3 event, patients with CTCAE grade ≥3 event", "setting": "20 mg (N = 6)", "value": "1 (17) N (%)"},
      {"measurement": "Constipation, CTCAE any grade, patients with AEs", "setting": "20 mg (N = 6)", "value": "1 (17) N (%)"},
      {"measurement": "Constipation, patients with CTCAE grade ≥3 event", "setting": "20 mg (N = 6)", "value": "0 N (%)"},
      {"measurement": "Diarrhea, CTCAE any grade, patients with AEs", "setting": "20 mg (N = 6)", "value": "0 N (%)"},
      {"measurement": "Dizziness, CTCAE any grade, patients with AEs", "setting": "20 mg (N = 6)", "value": "3 (50) N (%)"},
      {"measurement": "Fatigue, CTCAE any grade, patients with AEs", "setting": "20 mg (N = 6)", "value": "2 (33) N (%)"},
      {"measurement": "Fatigue, patients with CTCAE grade ≥3 event", "setting": "20 mg (N = 6)", "value": "0 N (%)"},
      {"measurement": "Febrile neutropenia, patients with CTCAE grade ≥3 event", "setting": "20 mg (N = 6)", "value": "0 N (%)"},
      {"measurement": "Insomnia, CTCAE any grade, patients with AEs", "setting": "20 mg (N = 6)", "value": "2 (33) N (%)"},
      {"measurement": "Nasopharyngitis, CTCAE any grade, patients with AEs", "setting": "20 mg (N = 6)", "value": "2 (33) N (%)"},
      {"measurement": "Nausea, CTCAE any grade, patients with AEs", "setting": "20 mg (N = 6)", "value": "1 (17) N (%)"},
      {"measurement": "Neutropenia, patients with CTCAE grade ≥3 event", "setting": "20 mg (N = 6)", "value": "1 (17) N (%)"},
      {"measurement": "Pyrexia, CTCAE any grade, patients with AEs", "setting": "20 mg (N = 6)", "value": "2 (33) N (%)"},
      {"measurement": "Rash, CTCAE any grade, patients with AEs", "setting": "20 mg (N = 6)", "value": "2 (33) N (%)"},
      {"measurement": "Urinary tract infection, patients with CTCAE grade ≥3 event", "setting": "20 mg (N = 6)", "value": "0 N (%)"},
      {"measurement": "Patients who withdrew from the study due to an AE", "setting": "20 mg dose cohort, grade 2 cystitis", "value": "one patient"},
      {"measurement": "Anorexia, patients with CTCAE grade ≥3 event", "setting": "25 mg (N = 6)", "value": "1 (17) N (%)"},
      {"measurement": "Any grade ≥3 event, patients with CTCAE grade ≥3 event", "setting": "25 mg (N = 6)", "value": "2 (33) N (%)"},
      {"measurement": "Constipation, CTCAE any grade, patients with AEs", "setting": "25 mg (N = 6)", "value": "2 (33) N (%)"},
      {"measurement": "Constipation, patients with CTCAE grade ≥3 event", "setting": "25 mg (N = 6)", "value": "1 (17) N (%)"},
      {"measurement": "Diarrhea, CTCAE any grade, patients with AEs", "setting": "25 mg (N = 6)", "value": "2 (33) N (%)"},
      {"measurement": "Dizziness, CTCAE any grade, patients with AEs", "setting": "25 mg (N = 6)", "value": "0 N (%)"},
      {"measurement": "Fatigue, CTCAE any grade, patients with AEs", "setting": "25 mg (N = 6)", "value": "3 (50) N (%)"},
      {"measurement": "Fatigue, patients with CTCAE grade ≥3 event", "setting": "25 mg (N = 6)", "value": "1 (17) N (%)"},
      {"measurement": "Febrile neutropenia, patients with CTCAE grade ≥3 event", "setting": "25 mg (N = 6)", "value": "1 (17) N (%)"},
      {"measurement": "Insomnia, CTCAE any grade, patients with AEs", "setting": "25 mg (N = 6)", "value": "1 (17) N (%)"},
      {"measurement": "Nasopharyngitis, CTCAE any grade, patients with AEs", "setting": "25 mg (N = 6)", "value": "2 (33) N (%)"},
      {"measurement": "Nausea, CTCAE any grade, patients with AEs", "setting": "25 mg (N = 6)", "value": "3 (50) N (%)"},
      {"measurement": "Neutropenia, patients with CTCAE grade ≥3 event", "setting": "25 mg (N = 6)", "value": "0 N (%)"},
      {"measurement": "Pyrexia, CTCAE any grade, patients with AEs", "setting": "25 mg (N = 6)", "value": "1 (17) N (%)"},
      {"measurement": "Rash, CTCAE any grade, patients with AEs", "setting": "25 mg (N = 6)", "value": "0 N (%)"},
      {"measurement": "Urinary tract infection, patients with CTCAE grade ≥3 event", "setting": "25 mg (N = 6)", "value": "1 (17) N (%)"},
      {"measurement": "Anorexia, patients with CTCAE grade ≥3 event", "setting": "Total, all doses (N = 18)", "value": "1 (6) N (%)"},
      {"measurement": "Any grade ≥3 event, patients with CTCAE grade ≥3 event", "setting": "Total, all doses (N = 18)", "value": "3 (17) N (%)"},
      {"measurement": "Constipation, CTCAE any grade, patients with AEs", "setting": "Total, all doses (N = 18)", "value": "4 (22) N (%)"},
      {"measurement": "Constipation, patients with CTCAE grade ≥3 event", "setting": "Total, all doses (N = 18)", "value": "1 (6) N (%)"},
      {"measurement": "Diarrhea, CTCAE any grade, patients with AEs", "setting": "Total, all doses (N = 18)", "value": "5 (28) N (%)"},
      {"measurement": "Dizziness, CTCAE any grade, patients with AEs", "setting": "Total, all doses (N = 18)", "value": "5 (28) N (%)"},
      {"measurement": "Fatigue, CTCAE any grade, patients with AEs", "setting": "Total, all doses (N = 18)", "value": "7 (39) N (%)"},
      {"measurement": "Fatigue, patients with CTCAE grade ≥3 event", "setting": "Total, all doses (N = 18)", "value": "1 (6) N (%)"},
      {"measurement": "Febrile neutropenia, patients with CTCAE grade ≥3 event", "setting": "Total, all doses (N = 18)", "value": "1 (6) N (%)"},
      {"measurement": "Insomnia, CTCAE any grade, patients with AEs", "setting": "Total, all doses (N = 18)", "value": "4 (22) N (%)"},
      {"measurement": "Nasopharyngitis, CTCAE any grade, patients with AEs", "setting": "Total, all doses (N = 18)", "value": "4 (22) N (%)"},
      {"measurement": "Nausea, CTCAE any grade, patients with AEs", "setting": "Total, all doses (N = 18)", "value": "7 (39) N (%)"},
      {"measurement": "Neutropenia, patients with CTCAE grade ≥3 event", "setting": "Total, all doses (N = 18)", "value": "1 (6) N (%)"},
      {"measurement": "Pyrexia, CTCAE any grade, patients with AEs", "setting": "Total, all doses (N = 18)", "value": "6 (33) N (%)"},
      {"measurement": "Rash, CTCAE any grade, patients with AEs", "setting": "Total, all doses (N = 18)", "value": "5 (28) N (%)"},
      {"measurement": "Urinary tract infection, patients with CTCAE grade ≥3 event", "setting": "Total, all doses (N = 18)", "value": "1 (6) N (%)"},
      {"measurement": "Deaths during the study", "setting": "all doses 10-25 mg", "value": "no deaths"},
      {"measurement": "Patients reporting fatigue (AE)", "setting": "[1]", "value": 39, "unit": "%"},
      {"measurement": "Patients reporting nausea (AE)", "setting": "[1]", "value": 39, "unit": "%"},
      {"measurement": "Patients reporting pyrexia (AE)", "setting": "[1]", "value": 33, "unit": "%"},
      {"measurement": "Patients who experienced at least one AE", "setting": "[1]", "value": "All patients"},
      {"measurement": "Patients who experienced CTCAE grade ≥3 events", "setting": "all doses, 18 patients, one in 20 mg, two in 25 mg cohort", "value": "Three"},
      {"measurement": "Tolerability", "setting": "doses up to 25 mg weekly", "value": "generally well tolerated"}
    ]}
  ]
}
